Experimental data as given in US20110207926A1, “NOVEL DIHYDROTRIAZINE DERIVATIVE” (HAMARI CHEMICALS, LTD., priority 2008, published 2011).
In brackets after ≈: the same amount, converted by molar mass. Like-named read-outs stand apart in the source and are kept apart here.

How the values were obtained:
Test in all cases: Bactericidal activity test (MBC measurement)
S. aureus ATCC 6538 = type: cell-based, Staphylococcus aureus
Procedure: (§1) Each strain was cultured in Trypticase Soy agar medium for 18 to 20 hr, suspended in 0.1% peptone saline, and prepared to OD 600 nm, 1.0 McFarland. The suspension was further diluted with 0.1% peptone saline to give a test bacteria solution (targeted value; 2×10^7 CFU/mL).
(§2) At 0.5, 1 and 3 min from the start of the reaction, a part of the reaction mixture was sampled and mixed with an equal amount of a neutralizing agent (10% Tween 80, 3% lecithin/aqueous solution) to terminate the bactericidal reaction. The reaction mixture was inoculated to a 96 well microplate dispensed with 180 μL of Tripticase Soy liquid medium in advance, and statically cultured at 37° C. for 20 to 24 hr. Thereafter, the presence or absence of growth was visually evaluated, and the minimum concentration at which growth was not observed was taken as the minimal bactericidal concentration (MBC value) of each action time. The numerical values in the Tables show MBC, the unit is μg/mL, S. aureus means Staphylococcus aureus, MRSA means methicillin-resistant Staphylococcus aureus, E. coli means Escherichia coli, and P. aeruginosa means Pseudomonas aeruginosa.

MRSA ATCC 33591 = type: cell-based, methicillin-resistant Staphylococcus aureus
Procedure: as §1, §2

E. coli ATCC 25922 = type: cell-based, Escherichia coli
Procedure: as §1, §2

P. aeruginosa ATCC 27853 = type: cell-based, Pseudomonas aeruginosa
Procedure: as §1, §2

P. aeruginosa PAO-1 = type: cell-based, Pseudomonas aeruginosa
Procedure: as §1, §2

[1] = Staphylococcus aureus, ATCC6538, 0.5 min, S. aureus ATCC 6538, action time 0.5 min, read-out: MBC
[2] = Staphylococcus aureus, ATCC6538, 1 min, S. aureus ATCC 6538, action time 1 min, read-out: MBC
[3] = Staphylococcus aureus, ATCC6538, 0.05 h, S. aureus ATCC 6538, action time 3 min, read-out: MBC
[4] = Staphylococcus aureus, 0.5 min, MRSA ATCC 33591, action time 0.5 min, read-out: MBC
[5] = Staphylococcus aureus, 1 min, MRSA ATCC 33591, action time 1 min, read-out: MBC
[6] = Staphylococcus aureus, 0.05 h, MRSA ATCC 33591, action time 3 min, read-out: MBC
[7] = Escherichia coli, ATCC25922, 0.5 min, E. coli ATCC 25922, action time 0.5 min, read-out: MBC
[8] = Escherichia coli, ATCC25922, 1 min, E. coli ATCC 25922, action time 1 min, read-out: MBC
[9] = Escherichia coli, ATCC25922, 0.05 h, E. coli ATCC 25922, action time 3 min, read-out: MBC
[10] = Pseudomonas aeruginosa, ATCC27853, 0.5 min, P. aeruginosa ATCC 27853, action time 0.5 min, read-out: MBC
[11] = Pseudomonas aeruginosa, ATCC27853, 1 min, P. aeruginosa ATCC 27853, action time 1 min, read-out: MBC
[12] = Pseudomonas aeruginosa, ATCC27853, 0.05 h, P. aeruginosa ATCC 27853, action time 3 min, read-out: MBC
[13] = S. aureus ATCC 6538, action time 0.5 min
[14] = S. aureus ATCC 6538, action time 1 min
[15] = MRSA ATCC 33591, action time 0.5 min
[16] = MRSA ATCC 33591, action time 1 min
[17] = MRSA ATCC 33591, action time 3 min
[18] = P. aeruginosa ATCC 27853, action time 0.5 min
[19] = Pseudomonas aeruginosa, PAO1, 0.5 min, P. aeruginosa PAO-1, action time 0.5 min, read-out: MBC

Row | Compound | MBC (S. aureus ATCC 6538; [1]) [µg/mL] | MBC (S. aureus ATCC 6538; [2]) [µg/mL] | MBC (S. aureus ATCC 6538; [3]) [µg/mL] | MBC (MRSA ATCC 33591; [4]) [µg/mL] | MBC (MRSA ATCC 33591; [5]) [µg/mL] | MBC (MRSA ATCC 33591; [6]) [µg/mL] | MBC (E. coli ATCC 25922; [7]) [µg/mL] | MBC (E. coli ATCC 25922; [8]) [µg/mL] | MBC (E. coli ATCC 25922; [9]) [µg/mL] | MBC (P. aeruginosa ATCC 27853; [10]) [µg/mL] | MBC (P. aeruginosa ATCC 27853; [11]) [µg/mL] | MBC (P. aeruginosa ATCC 27853; [12]) [µg/mL] | also measured
1 | CC(=O)O.CCCCCCCCNC1=NC(C)(C)NC(N(CC)Cc2ccccc2)=N1 [Example 13, 1,6-dihydro-6,6-dimethyl-N^4-octyl-N^2-benzyl-N^2-ethyl-1,3,5-triazine-2,4-diamine acetate] | 50 | 25 | 18.8 | 62.5 | 37.5 | 18.8 | 25 | 18.8 | 12.5 | 18.8 | 18.8 | 18.8 | 
2 | CCCCCCCCCCNC1=NC(C)(C)NC(N(C)CCC)=N1 [Example 16, 1,6-dihydro-6,6-dimethyl-N^4-decyl-N^2-methyl-N^2-propyl-1,3,5-triazine-2,4-diamine] | 75 (≈ 222 µM) | 50 (≈ 148 µM) | 25 (≈ 74.1 µM) | 100 (≈ 296 µM) | 37.5 (≈ 111 µM) | 18.8 (≈ 55.7 µM) | 18.8 (≈ 55.7 µM) | 18.8 (≈ 55.7 µM) | 9.4 (≈ 27.8 µM) | 25 (≈ 74.1 µM) | 18.8 (≈ 55.7 µM) | 18.8 (≈ 55.7 µM) | 
3 | N=C(NCCCCCCNC(=N)NC(=N)Nc1ccc(Cl)cc1)NC(=N)Nc1ccc(Cl)cc1.O=C(O)[C@H](O)[C@@H](O)[C@H](O)[C@H](O)CO.O=C(O)[C@H](O)[C@@H](O)[C@H](O)[C@H](O)CO [control, chlorhexidine gluconate, reference compound] |  |  |  |  |  |  |  |  |  |  |  |  | MBC (S. aureus ATCC 6538; [13]): >200 µg/mL; MBC (S. aureus ATCC 6538; [14]): >200 µg/mL; MBC (S. aureus ATCC 6538; S. aureus ATCC 6538, action time 3 min): >200 µg/mL; MBC (MRSA ATCC 33591; [15]): >200 µg/mL; MBC (MRSA ATCC 33591; [16]): >200 µg/mL; MBC (MRSA ATCC 33591; [17]): 200 µg/mL; MBC (E. coli ATCC 25922; E. coli ATCC 25922, action time 0.5 min): 100 µg/mL; MBC (P. aeruginosa ATCC 27853; [18]): >200 µg/mL
4 | CCCCCCCCCCNC1=NC(N2Cc3ccccc3C2)=NC(C)(C)N1 [Example 12, N-decyl-4-(1,3-dihydro-2H-isoindol-2-yl)-6,6-dimethyl-1,6-dihydro-1,3,5-triazine-2-amine] | 25 (≈ 65.2 µM) | 18.8 (≈ 49 µM) | 4.7 (≈ 12.3 µM) | 25 (≈ 65.2 µM) | 12.5 (≈ 32.6 µM) | 6.3 (≈ 16.4 µM) | 18.8 (≈ 49 µM) | 18.8 (≈ 49 µM) | 15.7 (≈ 40.9 µM) | 37.5 (≈ 97.8 µM) | 37.5 (≈ 97.8 µM) | 18.8 (≈ 49 µM) | 
5 | CC(=O)O.CCCCCCCCCNC1=NC(C)(C)NC(N(C)Cc2ccccc2)=N1 [Example 4, 1,6-dihydro-6,6-dimethyl-N^4-nonyl-N^2-benzyl-N^2-methyl-1,3,5-triazine-2,4-diamine acetate] | 100 |  |  | 25 |  |  | 12.5 |  |  | 25 |  |  | MBC (P. aeruginosa PAO-1; [19]): 25 µg/mL
6 | CCCCCCCCN(C)C(=N)NC(=N)NCc1ccc(Cl)c(Cl)c1.Cl [Example 28, N^5-octyl-N^5-methyl-N^1-(3,4-dichlorobenzyl)biguanide hydrochloride] | 25 | 12.5 | 12.5 | 50 | 12.5 | 12.5 | 6.25 | 6.25 | 6.25 | 25 | 25 | 12.5 | MBC (P. aeruginosa PAO-1; [19]): 12.5 µg/mL; MBC (P. aeruginosa PAO-1; Pseudomonas aeruginosa, PAO1, 1 min, P. aeruginosa PAO-1, action time 1 min, read-out: MBC): 12.5 µg/mL; MBC (P. aeruginosa PAO-1; Pseudomonas aeruginosa, PAO1, 0.05 h, P. aeruginosa PAO-1, action time 3 min, read-out: MBC): 6.25 µg/mL
7 | CC(=O)O.CCCCCCCCN(C)C1=NC(C)(C)NC(N(C)Cc2ccccc2)=N1 [Example 6, N^4-octyl-N^4-methyl-1,6-dihydro-6,6-dimethyl-N^2-benzyl-N^2-methyl-1,3,5-triazine-2,4-diamine acetate] | > 200 |  |  | 200 |  |  | 25 |  |  | 25 |  |  | MBC (P. aeruginosa PAO-1; [19]): 25 µg/mL
8 | CCCCCCCCCCCNC1=NC(C)(C)NC(N(C)Cc2ccc(N)cc2)=N1.Cl.Cl [Example 17, 1,6-dihydro-6,6-dimethyl-N^4-undecyl-N^2-(4-aminobenzyl)-N^2-methyl-1,3,5-triazine-2,4-diamine dihydrochloride] | 25 | 15.7 | 7.8 | 18.8 | 12.5 | 6.3 | 25 | 18.8 | 12.5 | 37.5 | 18.8 | 9.4 | 
9 | CC(=O)O.CCCCCCCCCCCCNC1=NC(N2CCN(C)CC2)=NC(C)(C)N1 [Example 10, N-dodecyl-6,6-dimethyl-4-(4-methylpiperazin-1-yl)-1,6-dihydro-1,3,5-triazine-2-amine acetate] | 75 | 50 | 12.5 | 50 | 50 | 12.5 | 25 | 25 | 25 | 25 | 18.8 | 18.8 | 
10 | 1,6-dihydro-6,6-dimethyl-N^4-decyl-N^2-benzyl-N^2-methyl-1,3,5-triazine-2,4-diamine gluconate [Example 3] |  |  |  |  |  |  |  |  |  |  |  |  | MBC (S. aureus ATCC 6538; [13]): 25 µg/mL; MBC (S. aureus ATCC 6538; [14]): 25 µg/mL; MBC (MRSA ATCC 33591; [15]): 25 µg/mL; MBC (MRSA ATCC 33591; [16]): 25 µg/mL; MBC (MRSA ATCC 33591; [17]): 25 µg/mL; MBC (P. aeruginosa ATCC 27853; [18]): 25 µg/mL; MBC (P. aeruginosa ATCC 27853; P. aeruginosa ATCC 27853, action time 1 min): 25 µg/mL; MBC (P. aeruginosa ATCC 27853; P. aeruginosa ATCC 27853, action time 3 min): 25 µg/mL; MBC (P. aeruginosa PAO-1; P. aeruginosa PAO-1, action time 0.5 min): 25 µg/mL; MBC (P. aeruginosa PAO-1; P. aeruginosa PAO-1, action time 1 min): 25 µg/mL; MBC (P. aeruginosa PAO-1; P. aeruginosa PAO-1, action time 3 min): 25 µg/mL
11 | CC(=O)O.CCCCCCCCCCNC1=NC(N2CCCCC2)=NC(C)(C)N1 [Example 11, N-decyl-6,6-dimethyl-4-(piperidin-1-yl)-1,6-dihydro-1,3,5-triazine-2-amine acetate] | 50 | 37.5 | 25 | 75 | 62.5 | 31.3 | 18.8 | 18.8 | 18.8 | 25 | 25 | 18.8 | 
12 | CCCCCCCCNC1=NC(C)(C)NC(N(C)CCc2ccccc2)=N1 [Example 14, 1,6-dihydro-6,6-dimethyl-N^4-octyl-N^2-methyl-N^2-(2-phenylethyl)-1,3,5-triazine-2,4-diamine] | 75 (≈ 202 µM) | 37.5 (≈ 101 µM) | 18.8 (≈ 50.6 µM) | 62.5 (≈ 168 µM) | 31.3 (≈ 84.2 µM) | 15.7 (≈ 42.3 µM) | 25 (≈ 67.3 µM) | 25 (≈ 67.3 µM) | 12.5 (≈ 33.6 µM) | 25 (≈ 67.3 µM) | 18.8 (≈ 50.6 µM) | 12.5 (≈ 33.6 µM) | 
13 | CCCCCCCCCCCCNC1=NC(N2CCOCC2)=NCN1 [Example 8, 1,6-dihydro-N-dodecyl-4-(morpholin-4-yl)-1,3,5-triazine-2-amine] | 37.5 (≈ 107 µM) | 25 (≈ 71.1 µM) | 9.4 (≈ 26.7 µM) | 37.5 (≈ 107 µM) | 18.8 (≈ 53.5 µM) | 6.3 (≈ 17.9 µM) | 18.8 (≈ 53.5 µM) | 12.5 (≈ 35.6 µM) | 9.4 (≈ 26.7 µM) | 12.5 (≈ 35.6 µM) | 12.5 (≈ 35.6 µM) | 9.4 (≈ 26.7 µM) | 
14 | CCCCCCCCCCCCCCN(C)C1=NC(C)(C)NC(N)=N1.Cl [Example 18, N^4-tetradecyl-N^4-methyl-1,6-dihydro-6,6-dimethyl-1,3,5-triazine-2,4-diamine hydrochloride] | 18.8 | 12.5 | 4.7 | 18.8 | 9.4 | 4.7 | 12.5 | 12.5 | 6.3 | 18.8 | 12.5 | 9.4 | 
